For one series, the system named is Proteus Mirabilis. In words: Promoting wave test (bio-wave model). In kind it is cell-based. Conditions: final concentration of 0.5% on LB plate, 37° C. An excerpt: I. Promoting Wave Test of the Compound of Formula (I) 1.
The conditions of series [1]: in vivo. An excerpt: • 1. acute toxicity test: including tests of administrating medicine by oral, Intravenous injection and maximum limit amount for administration; • 2. Ames test; • 3. micronucleus test of bone marrow cell of mouse; • 4. abnormal sexual test for the sperm of mouse; • 5. abnormal aberrance test for the chromosin of mouse's testis; • 6. chronic lethal test; • 7. subchronic toxicity (feed for 90 days) test; • 8. traditional aberrance-inducing test;

The structures appear in SMILES notation.

Here are results for one molecule from US7037904B2, “Use of N-acetyl-D-glucosamine in the manufacture of pharmaceutical useful for suppressing side-effect of radiotherapy and chemotherapy” (Third Military Medical University, Chinese People's …, priority 2001, dated 2006).

For `CC(=O)N[C@@H]1[C@@H](O)[C@H](O)[C@@H](CO)O[C@H]1O` [compound of formula (I), N-acetyl-D-glucosamine], the “promoting wave function (concentric ring pattern compared with control)” value in the series on Proteus Mirabilis is “there were also many fine waves on each ring emerged”. In series [1], the “acute test dosage relative to the injection dosage for human being” value is reported as 300 times and the “dosage at which acute toxicosis reaction had not appeared” value is “more than 2 g/kg”.
